Test results from PubChem BioAssay AID1963436 (Molecular Pharmacology Branch, DTP, NCI, 2024).

Tested on: OVCAR-5 complex spheroid (HUVEC/MSC), viability % T/C
Test: Anticancer human tumor OVCAR-5 cell line growth inhibition [Asc];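 note: spheroids exposed to agents for 7 days before readout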;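 for viability, T/C: 100% = DMSO vehicle-treated wells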
Settings: for IC50: curve of first compound; for viability, T/C: stronger effect = lower value
Procedure, shortened: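 Tumor cells were grown as multicellular spheroids with stromal HUVEC and mesenchymal stem cells and treated singly or in combination. Concentrations fell in half-log steps from the clinical Cmax, or from 10 microM where none was known.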

[1] = second compound 0.1 µM, first compound 0.0316 µM
[2] = second compound 0.1 µM, first compound 0.1 µM
[3] = second compound 0.1 µM, first compound 0.316 µM
[4] = second compound 0.1 µM, first compound 1 µM
[5] = second compound 0.1 µM, first compound 3.16 µM
[6] = second compound 0.1 µM, first compound 10 µM
[7] = second compound 0.316 µM, first compound 0.0316 µM
[8] = second compound 0.316 µM, first compound 0.1 µM
[9] = second compound 0.316 µM, first compound 0.316 µM
[10] = second compound 0.316 µM, first compound 1 µM
[11] = second compound 0.316 µM, first compound 3.16 µM
[12] = second compound 0.316 µM, first compound 10 µM
[13] = second compound 1 µM, first compound 0.0316 µM
[14] = second compound 1 µM, first compound 0.1 µM
[15] = second compound 1 µM, first compound 0.316 µM
[16] = second compound 1 µM, first compound 1 µM
[17] = second compound 1 µM, first compound 3.16 µM
[18] = second compound 1 µM, first compound 10 µM
[19] = second compound 3.16 µM, first compound 0.0316 µM
[20] = second compound 3.16 µM, first compound 0.1 µM
[21] = second compound 3.16 µM, first compound 0.316 µM
[22] = second compound 3.16 µM, first compound 1 µM
[23] = second compound 3.16 µM, first compound 3.16 µM
[24] = second compound 3.16 µM, first compound 10 µM
[25] = second compound 10 µM, first compound 0.0316 µM
[26] = second compound 10 µM, first compound 0.1 µM
[27] = second compound 10 µM, first compound 0.316 µM
[28] = second compound 10 µM, first compound 1 µM
[29] = second compound 10 µM, first compound 3.16 µM
[30] = second compound 10 µM, first compound 10 µM

`C=C(F)C(=O)N1CCN(c2nc(OCC3CCCN3C)nc3c2CCN(c2cccc4cccc(Cl)c24)C3)CC1CC#N` (stereo not given) + Cc1c(S(C)(=O)=O)c(-c2cc(F)cc(N3CCN(c4ccc(NS(=O)(=O)c5ccc(NC(CCN6CCC(C(=O)OCCCP(=O)(O)O)CC6)CSc6ccccc6)c(S(=O)(=O)C(F)(F)F)c5)cc4)CC3)c2)c(-c2ccc(Cl)cc2)n1C(C)C showed an IC50 (second compound 0.1 µM) of 0.799 µM, an IC50 (second compound 0.316 µM) of 0.587 µM and an IC50 (second compound 1 µM) of 0.649 µM. The IC50 (second compound 3.16 µM) was 0.561 µM, the IC50 (second compound 10 µM) was 0.643 µM and the viability, T/C [1] was 88.7%. The viability, T/C [2] was 96.8%, the viability, T/C [3] was 79.9% and the viability, T/C [4] was 43.7%. The viability, T/C [5] was 1.2%, the viability, T/C [6] was 0.31% and the viability, T/C [7] was 93.5%. For the same molecule, the viability, T/C [8] was 98%, the viability, T/C [9] was 78.3% and the viability, T/C [10] was 25.4%. For the same molecule, the viability, T/C [11] was 1.91%, the viability, T/C [12] was 0.12% and the viability, T/C [13] was 81.5%. The viability, T/C [14] was 89%, the viability, T/C [15] was 83.3% and the viability, T/C [16] was 29.9%. The viability, T/C [17] was 0.65%, the viability, T/C [18] was 0.74% and the viability, T/C [19] was 90%. For the same molecule, the viability, T/C [20] was 92.3%, the viability, T/C [21] was 80.1% and the viability, T/C [22] was 19.6%. It also gave a viability, T/C [23] of 0.82%, a viability, T/C [24] of 0.14% and a viability, T/C [25] of 111%. It also gave a viability, T/C [26] of 131%, a viability, T/C [27] of 106% and a viability, T/C [28] of 15.1%. The viability, T/C [29] was 0.46% and the viability, T/C [30] was 0.21%.
With `C=CC(=O)N1CCN(c2nc(=O)n(-c3c(C)ccnc3C(C)C)c3nc(-c4c(O)cccc4F)c(F)cc23)C(C)C1` (stereo not given) + Cc1c(S(C)(=O)=O)c(-c2cc(F)cc(N3CCN(c4ccc(NS(=O)(=O)c5ccc(NC(CCN6CCC(C(=O)OCCCP(=O)(O)O)CC6)CSc6ccccc6)c(S(=O)(=O)C(F)(F)F)c5)cc4)CC3)c2)c(-c2ccc(Cl)cc2)n1C(C)C the IC50 (second compound 0.1 µM) was greater than 10 µM, the IC50 (second compound 0.316 µM) was greater than 10 µM and the IC50 (second compound 1 µM) was greater than 10 µM. It also gave an IC50 (second compound 3.16 µM) greater than 10 µM, an IC50 (second compound 10 µM) greater than 10 µM and a viability, T/C [1] of 100%. For the same molecule, the viability, T/C [2] was 109%, the viability, T/C [3] was 98.7% and the viability, T/C [4] was 111%. The viability, T/C [5] was 114%, the viability, T/C [6] was 97.5% and the viability, T/C [7] was 93.4%. The viability, T/C [8] was 103%, the viability, T/C [9] was 95.5% and the viability, T/C [10] was 96.9%. It also gave a viability, T/C [11] of 112%, a viability, T/C [12] of 102% and a viability, T/C [13] of 89.8%. For the same molecule, the viability, T/C [14] was 101%, the viability, T/C [15] was 111% and the viability, T/C [16] was 98.2%. It also gave a viability, T/C [17] of 97.5%, a viability, T/C [18] of 106% and a viability, T/C [19] of 95.4%. It also gave a viability, T/C [20] of 102%, a viability, T/C [21] of 109% and a viability, T/C [22] of 103%. It also gave a viability, T/C [23] of 108%, a viability, T/C [24] of 98.1% and a viability, T/C [25] of 119%. For the same molecule, the viability, T/C [26] was 136%, the viability, T/C [27] was 142% and the viability, T/C [28] was 139%. It also gave a viability, T/C [29] of 144% and a viability, T/C [30] of 145%.
`CCN1C(C(=O)NC23CCC(C(=O)O)(CC2)CC3)C(c2cccc(Cl)c2F)C2(C(=O)Nc3cc(Cl)ccc32)C12CCCCC2` (stereo not given) + Cc1c(S(C)(=O)=O)c(-c2cc(F)cc(N3CCN(c4ccc(NS(=O)(=O)c5ccc(NC(CCN6CCC(C(=O)OCCCP(=O)(O)O)CC6)CSc6ccccc6)c(S(=O)(=O)C(F)(F)F)c5)cc4)CC3)c2)c(-c2ccc(Cl)cc2)n1C(C)C showed an IC50 (second compound 0.1 µM) greater than 3 µM, an IC50 (second compound 0.316 µM) greater than 3 µM and an IC50 (second compound 1 µM) greater than 3 µM. For the same molecule, the IC50 (second compound 3.16 µM) was greater than 3 µM, the IC50 (second compound 10 µM) was greater than 3 µM and the viability, T/C (second compound 0.1 µM, first compound 0.00949 µM) was 102%. The viability, T/C (second compound 0.1 µM, first compound 0.03 µM) was 93.8%, the viability, T/C (second compound 0.1 µM, first compound 0.0949 µM) was 93.1% and the viability, T/C (second compound 0.1 µM, first compound 0.3 µM) was 86.9%. The viability, T/C (second compound 0.1 µM, first compound 0.949 µM) was 97.3%, the viability, T/C (second compound 0.1 µM, first compound 3 µM) was 92.5% and the viability, T/C (second compound 0.316 µM, first compound 0.00949 µM) was 86.3%. For the same molecule, the viability, T/C (second compound 0.316 µM, first compound 0.03 µM) was 101%, the viability, T/C (second compound 0.316 µM, first compound 0.0949 µM) was 90.2% and the viability, T/C (second compound 0.316 µM, first compound 0.3 µM) was 82.8%. The viability, T/C (second compound 0.316 µM, first compound 0.949 µM) was 91.3%, the viability, T/C (second compound 0.316 µM, first compound 3 µM) was 83.3% and the viability, T/C (second compound 1 µM, first compound 0.00949 µM) was 88%. The viability, T/C (second compound 1 µM, first compound 0.03 µM) was 85.5%, the viability, T/C (second compound 1 µM, first compound 0.0949 µM) was 88.5% and the viability, T/C (second compound 1 µM, first compound 0.3 µM) was 86.9%. The viability, T/C (second compound 1 µM, first compound 0.949 µM) was 75.4%, the viability, T/C (second compound 1 µM, first compound 3 µM) was 83% and the viability, T/C (second compound 3.16 µM, first compound 0.00949 µM) was 84.7%. For the same molecule, the viability, T/C (second compound 3.16 µM, first compound 0.03 µM) was 92.4%, the viability, T/C (second compound 3.16 µM, first compound 0.0949 µM) was 97.4% and the viability, T/C (second compound 3.16 µM, first compound 0.3 µM) was 78.7%. It also gave a viability, T/C (second compound 3.16 µM, first compound 0.949 µM) of 74.1%, a viability, T/C (second compound 3.16 µM, first compound 3 µM) of 69.3% and a viability, T/C (second compound 10 µM, first compound 0.00949 µM) of 114%. For the same molecule, the viability, T/C (second compound 10 µM, first compound 0.03 µM) was 122%, the viability, T/C (second compound 10 µM, first compound 0.0949 µM) was 126% and the viability, T/C (second compound 10 µM, first compound 0.3 µM) was 111%. It also gave a viability, T/C (second compound 10 µM, first compound 0.949 µM) of 102% and a viability, T/C (second compound 10 µM, first compound 3 µM) of 89.8%.
